Test results taken from PMC7588194 (Virulence, 2020).

Test system: P. aeruginosa (ATCC 27853)
Experiment: Radial diffusion assay
Format: cell-based
Settings: for enhancement of antimicrobial activity among derivatives D1-D7 / concentration achieving similar inhibition zones: Figure 6C
Procedure: To identify library fractions and purified peptides with antibacterial activity a radial diffusion assay was carried out. Bacteria were cultured in liquid THY broth (Todd-Hewitt Broth [Oxoid, CM0189B] supplemented with 0.5% yeast extract [BD, Miami, USA, 212,750]) at 37°C overnight in a 5% CO2 atmosphere, pelleted by centrifugation and washed in 10 mM sodium phosphate buffer. Following resuspension in 10 mM sodium phosphate buffer optical density was determined spectrophotometrically at 600 nm (OD600nm). Bacterial density was adjusted to seed 2 × 10^7 bacteria into a petri dish in 1% agarose dissolved in 10 mM sodium phosphate buffer. Plates were allowed to cool for 30 min at 4°C before several 2–3 mm holes were placed into the 1% agarose. Freeze-dried fractions of the BAL library pool were reconstituted in 200 µl of ddH2O with 10 µl being used for the initial screen. Alternatively, peptides adjusted to the desired concentration in 10 µl of ddH2O were filled into the agar-holes. Following incubation at 37°C in ambient air for 3 h plates were overlaid with 10 ml of a 1% agarose solution containing 3% tryptic soy broth (TSB) dissolved in 10 mM phosphate buffer. Inhibition zones in cm were determined following 16–18 h incubation time at 37°C in a 5% CO2 atmosphere.

Sequence	enhancement of antimicrobial activity among derivatives D1-D7	concentration achieving similar inhibition zones [µg/mL]	times the amount needed compared to D7 at 25 µg/ml for similar inhibition zones
GVNHVILSQIKIVKW [B2M D6]	most convincing enhancement of antimicrobial activity		
GVNHVKLSQIKIVKW [B2M D7]	most convincing enhancement of antimicrobial activity	25	
RVNHVTLSQPKIVKW [B2M 101-115]		50 to 100	2–4
